Molecular target: T1, ERα (Homo sapiens, UniProt P03372)
T1 construct: host or cells: MCF7
T1 sequence (P03372 1-595): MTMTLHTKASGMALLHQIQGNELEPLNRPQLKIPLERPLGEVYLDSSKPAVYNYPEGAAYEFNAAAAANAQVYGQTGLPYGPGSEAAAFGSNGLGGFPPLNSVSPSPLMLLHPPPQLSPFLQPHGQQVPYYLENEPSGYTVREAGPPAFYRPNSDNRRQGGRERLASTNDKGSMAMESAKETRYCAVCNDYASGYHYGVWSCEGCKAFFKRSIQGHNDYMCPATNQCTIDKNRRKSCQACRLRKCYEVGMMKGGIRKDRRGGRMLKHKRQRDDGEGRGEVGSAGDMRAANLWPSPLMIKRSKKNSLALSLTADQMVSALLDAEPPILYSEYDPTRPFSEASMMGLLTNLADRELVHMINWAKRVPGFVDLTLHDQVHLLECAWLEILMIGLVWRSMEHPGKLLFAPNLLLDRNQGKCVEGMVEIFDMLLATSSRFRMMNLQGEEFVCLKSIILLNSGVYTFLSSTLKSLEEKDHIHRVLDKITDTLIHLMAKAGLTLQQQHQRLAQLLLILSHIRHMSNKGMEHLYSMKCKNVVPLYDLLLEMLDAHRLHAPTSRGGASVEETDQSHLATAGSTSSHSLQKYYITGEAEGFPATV
Test: Estrogen receptor degradation activity: breast cancer cell ERα in cell western assay (MCF7 cells)
Type: cell-based
Conditions: for % Degradation At 0.3 μM: 4 hours, relative to fulvestrant 0.1 μM positive control; for DC50 / IC50: 4 hours post compound addition, concentration which degrades 50% of the estrogen receptor; for DC50: read-out: Degradation IC50
Method: Test: Estrogen Receptor Degradation Activity Said test involves measuring the in vitro degradation activity of the compounds of the Table 1a. The measurements of the degradation activities were made using a breast cancer cell ERα in cell western assay as described hereunder. MCF7 cells (ATCC) were seeded in 384 wells microplate (collagen coated) at a concentration of 10000 cells/30 μL per well in red phenol free MEM alpha medium (invitrogen) containing 5% charcoal dextran striped FBS. The following day, 9 points serial 1:5 dilution of each compound was added to the cells in 2.5p L at final concentrations ranging from 0.3-0.0000018 μM (in table 2), or 0.1 μM for fulvestrant (using as positive control). At 4 hours post compound addition the cells were fixed by adding 25 μL of formalin (final concentration 5% formalin containing 0.1% triton) for 10 minutes at room temperature and then washed twice with PBS. Then, 50 μL of LI-COR blocking buffer containing 0.1% Triton was added to plate for 30 minutes at room temperature. LI-COR blocking buffer was removed and cells were incubated overnight at cold room with 50 μL anti-ER rabbit monoclonal antibody (Thermo scientific MA1-39540) diluted at 1:1000 in LI-COR blocking buffer containing 0.1% tween-20. Wells which were treated with blocking buffer but no antibody were used as background control. Wells were washed twice with PBS (0.1% tween-20) and incubated at 37° C. for 60 minutes in LI-COR (0.1% tween-20) containing goat anti-rabbit antibody Alexa 488 (1:1000) and Syto-64 a DNA dye (2 μM final concentration). Cells were then washed 3 times in PBS and scanned in ACUMEN explorer (TTP-Labtech). Integrated intensities in the green fluorescence and red fluorescence were measured to determine the levels of ERα and DNA respectively. The degradation activity with respect to estrogen receptors in this test is given by the concentration which degrades 50% of the estrogen receptor (or IC50) in nM. […] DMSO−fulvestrant)).

SMILES | % Degradation At 0.3 μM | DC50 | IC50
Cc1c(C(=O)O)ccc2c1CCCC(c1ccc(Cl)cc1Cl)=C2c1ccc(CC2CN(CCCF)C2)cc1.Cl [Example 250, 8-(2,4-dichlorophenyl)-9-(4-((1-(3-fluoropropyl)azetidin-3-yl)methyl)phenyl)-4-methyl-6,7-dihydro-5H-benzo[7]annulene-3-carboxylic acid hydrochloride] | 90% | 0.6 nM | –
NC(c1ccc(C2=C(c3ccc(Cl)cc3Cl)CCCc3cc(C(=O)O)ccc32)cc1)C1CN(CCCF)C1 (single isomer, unassigned; isomer 2) [Example 244, 9-(4-(Amino(1-(3-fluoropropyl)azetidin-3-yl)methyl)phenyl)-8-(2,4-dichlorophenyl)-6,7-dihydro-5H-benzo[7]annulene-3-carboxylic Acid Isomer 2] | 86% | 13.6 nM | –
COc1cc(F)ccc1C1=C(c2ccc(CC3CN(CCCF)C3)cc2)c2ccc(C(=O)O)cc2CCC1 [Example 36, 8-(4-fluoro-2-methoxyphenyl)-9-(4-((1-(3-fluoropropyl)azetidin-3-yl)methyl)phenyl)-6,7-dihydro-5H-benzo[7]annulene-3-carboxylic acid] | 89% | 0.6 nM | –
O=C(O)c1ccc2c(c1)CCCC(c1ccc(Cl)cc1Cl)=C2c1ccc(CC2CN(CCCF)C2)cn1 [Example 253, 8-(2,4-dichlorophenyl)-9-(5-((1-(3-fluoropropyl)azetidin-3-yl)methyl)pyridin-2-yl)-6,7-dihydro-5H-benzo[7]annulene-3-carboxylic Acid] | 89% | 4 nM | –
Cl.O=C(O)c1ccc2c(c1)CCCC(c1ccc(Cl)cc1F)=C2c1ccc(CC2CN(CCCF)C2)cc1 [Example 12, 8-(4-chloro-2-fluorophenyl)-9-(4-((1-(3-fluoropropyl)azetidin-3-yl)methyl)phenyl)-6,7-dihydro-5H-benzo[7]annulene-3-carboxylic acid] | 93% | 0.4 nM | –
Cc1c(C2=C(c3ccc(CC4CN(CCC(F)(F)F)C4)cc3)c3ccc(C(=O)O)cc3CCC2)cccc1C(F)(F)F [Example 256, 8-(2-methyl-3-(trifluoromethyl)phenyl)-9-(4-((1-(3,3,3-trifluoropropyl)azetidin-3-yl)methyl)phenyl)-6,7-dihydro-5H-benzo[7]annulene-3-carboxylic acid] | 82% | 1 nM | –
O=C(O)c1cc2c(cc1Cl)C(c1ccc(CC3CN(CCCF)C3)cc1)=C(c1ccc(Cl)cc1Cl)CCC2 [Example 248, 2-chloro-8-(2,4-dichlorophenyl)-9-(4-((1-(3-fluoropropyl)azetidin-3-yl)methyl)phenyl)-6,7-dihydro-5H-benzo[7]annulene-3-carboxylic acid] | 90% | 2.2 nM | –
Cc1cc(C2=C(c3ccc(Cl)cc3Cl)CCCc3cc(C(=O)O)ccc32)ccc1CC1CN(CCCF)C1.Cl [Example 48, 8-(2,4-dichlorophenyl)-9-(4-((1-(3-fluoropropyl)azetidin-3-yl)methyl)-3-methylphenyl)-6,7-dihydro-5H-benzo[7]annulene-3-carboxylic acid] | 86% | 0.5 nM | –
O=C(O)c1ccc2c(c1)CCCC(c1ccc(Cl)cc1Cl)=C2c1ccc(C(F)(F)C2CN(CCCF)C2)cc1 [Example 40, 8-(2,4-dichlorophenyl)-9-(4-(difluoro(1-(3-fluoropropyl)azetidin-3-yl)methyl)phenyl)-6,7-dihydro-5H-benzo[7]annulene-3-carboxylic acid] | 91% | 0.4 nM | –
O=C(O)c1ccc2c(c1)CCCC(c1cc(CC(F)(F)F)ccc1F)=C2c1ccc(CC2CN(CCCF)C2)cc1 [Example 295, 8-(2-fluoro-5-(2,2,2-trifluoroethyl)phenyl)-9-(4-((1-(3-fluoropropyl)azetidin-3-yl)methyl)phenyl)-6,7-dihydro-5H-benzo[7]annulene-3-carboxylic acid] | 86% | 0.7 nM | –
O=C(O)c1ccc2c(c1)CCCC(c1cccc(Cl)c1C(F)(F)F)=C2c1ccc(CC2CN(CCCF)C2)cc1 [Example 226, 8-(3-chloro-2-(trifluoromethyl)phenyl)-9-(4-((1-(3-fluoropropyl)azetidin-3-yl)methyl)phenyl)-6,7-dihydro-5H-benzo[7]annulene-3-carboxylic acid] | 90% | – | 0.1 nM
O=C(O)c1ccc2c(c1)CCCC(c1cccc(Cl)c1Cl)=C2c1ccc(CC2CN(CCCF)C2)cc1 [Example 19, 8-(2,3-dichlorophenyl)-9-(4-((1-(3-fluoropropyl)azetidin-3-yl)methyl)phenyl)-6,7-dihydro-5H-benzo[7]annulene-3-carboxylic acid] | 91% | 0.3 nM | –
CC1CCc2cc(C(=O)O)ccc2C(c2ccc(CC3CN(CCCF)C3)cc2)=C1c1ccc(F)cc1 (racemic) [Example 325, 8-(4-fluorophenyl)-9-(4-((1-(3-fluoropropyl)azetidin-3-yl)methyl)phenyl)-7-methyl-6,7-dihydro-5H-benzo[7]annulene-3-carboxylic acid] | 89% | 0.5 nM | –
Cl.O=C(O)c1ccc2c(c1)CCCC(c1ccc(Cl)c(F)c1Cl)=C2c1ccc(CC2CN(CCCF)C2)cc1 [Example 211, 8-(2,4-dichloro-3-fluorophenyl)-9-(4-((1-(3-fluoropropyl)azetidin-3-yl)methyl)phenyl)-6,7-dihydro-5H-benzo[7]annulene-3-carboxylic acid hydrochloride] | 96% | – | 0.1 nM
CC(C)C1CCc2cc(C(=O)O)ccc2C(c2ccc(CC3CN(CCCF)C3)cc2)=C1c1ccc(Cl)cc1Cl (single isomer, unassigned) [Example 322, 8-(2,4-dichlorophenyl)-9-(4-((1-(3-fluoropropyl)azetidin-3-yl)methyl)phenyl)-7-isopropyl-6,7-dihydro-5H-benzo[7]annulene-3-carboxylic acid] | 87% | 0.6 nM | –
O=C([O-])c1ccc2c(c1)CCCC(c1cc(F)cc(C(F)F)c1)=C2c1ccc(CC2CN(CCCF)C2)cc1.[Na+] [Example 251, sodium 8-(3-(difluoromethyl)-5-fluorophenyl)-9-(4-((1-(3-fluoropropyl)azetidin-3-yl)methyl)phenyl)-6,7-dihydro-5H-benzo[7]annulene-3-carboxylate] | 87% | 0.7 nM | –
O=C(O)c1ccc2c(c1)CCCC(c1ccc(Cl)cc1Cl)=C2c1ccc(C(O)C2CN(CCCF)C2)cc1 (single isomer, unassigned) [Example 42, 8-(2,4-dichlorophenyl)-9-(4-((1-(3-fluoropropyl)azetidin-3-yl)(hydroxy)methyl)phenyl)-6,7-dihydro-5H-benzo[7]annulene-3-carboxylic acid] | 94% | 3.3 nM | –
O=C(O)c1ccc2c(c1)CCCC(C1CC3CCC1C3)=C2c1ccc(CC2CN(CCCF)C2)cc1 (mixture of isomers) [Example 307, 8-(bicyclo[2.2.1]heptan-2-yl)-9-(4-((1-(3-fluoropropyl)azetidin-3-yl)methyl)phenyl)-6,7-dihydro-5H-benzo[7]annulene-3-carboxylic acid] | 84% | 0.4 nM | –
Cc1cc(CC2CN(CCCF)C2)ccc1C1=C(c2ccc(Cl)cc2Cl)CCCc2cc(C(=O)O)ccc21 [Example 240, 8-(2,4-dichlorophenyl)-9-(4-((1-(3-fluoropropyl)azetidin-3-yl)methyl)-2-methylphenyl)-6,7-dihydro-5H-benzo[7]annulene-3-carboxylic acid] | 85% | 0.5 nM | –
